Species on record: Rattus norvegicus
Test: DrugMatrix - Regimen: Daily Repeat
Format: toxicity, organism-based, Sprague-Dawley
Design: regimen Daily Repeat, gender Male, age 6-8 weeks
Conditions: in vivo, po, route oral GAVAGE, vehicle 100 % WATER; for ABSOLUTE BASOPHIL / ABSOLUTE EOSINOPHIL / ABSOLUTE LYMPHOCYTE / ABSOLUTE MONOCYTE / ABSOLUTE SEGMENTED NEUTROPHIL / BASOPHIL / EOSINOPHIL / ERYTHROCYTE COUNT / HEMATOCRIT / HEMOGLOBIN / LEUKOCYTE COUNT / LYMPHOCYTE / MEAN CORPUSCULAR HEMOGLOBIN / MEAN CORPUSCULAR HEMOGLOBIN CONCENTRATION / MEAN CORPUSCULAR VOLUME / MONOCYTE / NEUTROPHIL / NUCLEATED RED BLOOD CELLS / PLATELET COUNT: tissue Blood; for ALANINE AMINOTRANSFERASE / ALBUMIN / ALKALINE PHOSPHATASE / ASPARTATE AMINOTRANSFERASE / BLOOD UREA NITROGEN / CARBON DIOXIDE / CHLORIDE / CHOLESTEROL / CREATINE PHOSPHOKINASE / CREATININE / GLUCOSE / LACTATE DEHYDROGENASE / LIPASE / PHOSPHORUS / POTASSIUM / SODIUM / TOTAL BILIRUBIN / TOTAL PROTEIN / URIC ACID: tissue Plasma
[1] = 11 mg/kg, 120 h, dose level Low, time 5 day
[2] = 1100 mg/kg, 72 h, dose level High, time 3 day
[3] = 1100 mg/kg, 120 h, dose level High, time 5 day

SMILES: CNS(=O)(=O)Cc1ccc2[nH]cc(CCN(C)C)c2c1
- ABSOLUTE BASOPHIL [1]: 0 CELLS/uL
- ABSOLUTE EOSINOPHIL [1]: 33.33 CELLS/uL
- ABSOLUTE LYMPHOCYTE [1]: 13548.33 CELLS/uL
- ABSOLUTE MONOCYTE [1]: 177 CELLS/uL
- ABSOLUTE SEGMENTED NEUTROPHIL [1]: 608 CELLS/uL
- BASOPHIL [1]: 0%
- EOSINOPHIL [1]: 0.33%
- ERYTHROCYTE COUNT [1]: 5.94 x10E6/uL
- HEMATOCRIT [1]: 38.1%
- HEMOGLOBIN [1]: 14.67 G/DL
- LEUKOCYTE COUNT [1]: 14.37 x10E3/uL
- LYMPHOCYTE [1]: 94%
- MEAN CORPUSCULAR HEMOGLOBIN [1]: 24.67 pg
- MEAN CORPUSCULAR HEMOGLOBIN CONCENTRATION [1]: 38.53 G/DL
- MEAN CORPUSCULAR VOLUME [1]: 64.03 fL
- MONOCYTE [1]: 1.33%
- NEUTROPHIL [1]: 4.33%
- NUCLEATED RED BLOOD CELLS [1]: 0 /100WBC
- PLATELET COUNT [1]: 1140 x10E3/uL
- ALANINE AMINOTRANSFERASE [1]: 51 u/L
- ALBUMIN [1]: 4.23 G/DL
- ALKALINE PHOSPHATASE [1]: 398.33 u/L
- ASPARTATE AMINOTRANSFERASE [1]: 85.33 u/L
- BLOOD UREA NITROGEN [1]: 15.67 mg/dL
- CARBON DIOXIDE [1]: 31.67 mmol/L
- CHLORIDE [1]: 101.67 MEQ/L
- CHOLESTEROL [1]: 66 mg/dL
- CREATINE PHOSPHOKINASE [1]: 235 u/L
- CREATININE [1]: 0.17 mg/dL
- GLUCOSE [1]: 139.67 mg/dL
- LACTATE DEHYDROGENASE [1]: 145 u/L
- LIPASE [1]: 10.33 u/L
- PHOSPHORUS [1]: 11.03 mg/dL
- POTASSIUM [1]: 6.19 MEQ/L
- SODIUM [1]: 146.47 MEQ/L
- TOTAL BILIRUBIN [1]: 0.17 mg/dL
- TOTAL PROTEIN [1]: 6.37 G/DL
- URIC ACID [1]: 0.83 mg/dL
- ABSOLUTE BASOPHIL [2]: 0 CELLS/uL
- ABSOLUTE EOSINOPHIL [2]: 0 CELLS/uL
- ABSOLUTE LYMPHOCYTE [2]: 8603 CELLS/uL
- ABSOLUTE MONOCYTE [2]: 74.33 CELLS/uL
- ABSOLUTE SEGMENTED NEUTROPHIL [2]: 922.67 CELLS/uL
- BASOPHIL [2]: 0%
- EOSINOPHIL [2]: 0%
- ERYTHROCYTE COUNT [2]: 5.83 x10E6/uL
- HEMATOCRIT [2]: 35.8%
- HEMOGLOBIN [2]: 13.87 G/DL
- LEUKOCYTE COUNT [2]: 9.6 x10E3/uL
- LYMPHOCYTE [2]: 89.67%
- MEAN CORPUSCULAR HEMOGLOBIN [2]: 23.8 pg
- MEAN CORPUSCULAR HEMOGLOBIN CONCENTRATION [2]: 38.73 G/DL
- MEAN CORPUSCULAR VOLUME [2]: 61.43 fL
- MONOCYTE [2]: 0.67%
- NEUTROPHIL [2]: 9.67%
- NUCLEATED RED BLOOD CELLS [2]: 0 /100WBC
- PLATELET COUNT [2]: 1087.33 x10E3/uL
- ALANINE AMINOTRANSFERASE [2]: 50.33 u/L
- ALBUMIN [2]: 4.07 G/DL
- ALKALINE PHOSPHATASE [2]: 367.67 u/L
- ASPARTATE AMINOTRANSFERASE [2]: 86 u/L
- BLOOD UREA NITROGEN [2]: 12.67 mg/dL
- CARBON DIOXIDE [2]: 30 mmol/L
- CHLORIDE [2]: 101.67 MEQ/L
- CHOLESTEROL [2]: 70.33 mg/dL
- CREATINE PHOSPHOKINASE [2]: 362.67 u/L
- CREATININE [2]: 0.2 mg/dL
- GLUCOSE [2]: 136.67 mg/dL
- LACTATE DEHYDROGENASE [2]: 189.67 u/L
- LIPASE [2]: 10.33 u/L
- PHOSPHORUS [2]: 10.73 mg/dL
- POTASSIUM [2]: 5.86 MEQ/L
- SODIUM [2]: 145.13 MEQ/L
- TOTAL BILIRUBIN [2]: 0.13 mg/dL
- TOTAL PROTEIN [2]: 6.13 G/DL
- URIC ACID [2]: 0.7 mg/dL
- ABSOLUTE BASOPHIL [3]: 0 CELLS/uL
- ABSOLUTE EOSINOPHIL [3]: 40.67 CELLS/uL
- ABSOLUTE LYMPHOCYTE [3]: 8480 CELLS/uL
- ABSOLUTE MONOCYTE [3]: 117.33 CELLS/uL
- ABSOLUTE SEGMENTED NEUTROPHIL [3]: 862 CELLS/uL
- BASOPHIL [3]: 0%
- EOSINOPHIL [3]: 0.33%
- ERYTHROCYTE COUNT [3]: 5.92 x10E6/uL
- HEMATOCRIT [3]: 37.33%
- HEMOGLOBIN [3]: 14.3 G/DL
- LEUKOCYTE COUNT [3]: 9.5 x10E3/uL
- LYMPHOCYTE [3]: 89.67%
- MEAN CORPUSCULAR HEMOGLOBIN [3]: 24.2 pg
- MEAN CORPUSCULAR HEMOGLOBIN CONCENTRATION [3]: 38.27 G/DL
- MEAN CORPUSCULAR VOLUME [3]: 63.17 fL
- MONOCYTE [3]: 1%
- NEUTROPHIL [3]: 9%
- NUCLEATED RED BLOOD CELLS [3]: 0 /100WBC
- PLATELET COUNT [3]: 1190.33 x10E3/uL
- ALANINE AMINOTRANSFERASE [3]: 47.67 u/L
- ALBUMIN [3]: 4.07 G/DL
- ALKALINE PHOSPHATASE [3]: 329 u/L
- ASPARTATE AMINOTRANSFERASE [3]: 87.67 u/L
- BLOOD UREA NITROGEN [3]: 15.67 mg/dL
- CARBON DIOXIDE [3]: 31 mmol/L
- CHLORIDE [3]: 100 MEQ/L
- CHOLESTEROL [3]: 65.67 mg/dL
- CREATINE PHOSPHOKINASE [3]: 337 u/L
- CREATININE [3]: 0.17 mg/dL
- GLUCOSE [3]: 135.33 mg/dL
- LACTATE DEHYDROGENASE [3]: 119.67 u/L
- LIPASE [3]: 10.33 u/L
- PHOSPHORUS [3]: 9.67 mg/dL
- POTASSIUM [3]: 6.24 MEQ/L
- SODIUM [3]: 145.07 MEQ/L
- TOTAL BILIRUBIN [3]: 0.2 mg/dL
- TOTAL PROTEIN [3]: 6.2 G/DL
- URIC ACID [3]: 0.83 mg/dL

Reference: ChEMBL document CHEMBL3885881, “DrugMatrix”
